Measurements reported in patent US20100212049A1, “Compositions and Methods of Use of Response Regulators” (Pioneer Hi-Bred International, Inc., priority 2005, published 2010).

Assays:
[1] = tested on: Ckx1 transcripts; experiment: Lynx expression experiment, leaf discs floated on BA vs water: Ckx1; format: cell-based, maize B73; details: 10 μM BA, 6 h
Method: (§1) A Lynx experiment was performed to identify genes in the cytokinin signaling and metabolism pathway, as well as the carbohydrate pathway, whose expression is modulated in response to elevated cytokinin levels. One goal of this experiment was to identify response regulators that could be involved in the cytokinin-signaling pathway and could potentially act as Ckx1 transcriptional regulators.
Two experiments were performed: one was an initial experiment to determine the time course for BA induction of Ckx1 transcripts in leaf discs, while the second experiment used the time-course information to optimize tissue harvest for the actual Lynx study. For the time-course experiment, leaf discs (5 mm in diameter) were collected from fully expanded leaves of 8-week old maize plants (inbred B73) and were incubated in petri dishes containing water or water plus 10 μM BA for different time periods at 25° C. For the Lynx experiment ˜300 leaf-discs were punched from ear leaves collected from 5 different maize B73 plants at flowering. […]
(§2) Nevertheless, differences in levels of expression of multiple genes were detected and these are presented as genes relevant to cytokinin response, isoprenoid (or terpenoid) biosynthesis, and cell division (Table 2).
A ˜30-fold increase in Ckx1 transcripts was measured after 6 h of BA application (Table 2). […]

[2] = tested on: Ckx1 transcripts; experiment: Time-course of Ckx1 transcript induction by BA in maize leaf discs (Northern blot); format: cell-based, maize (inbred B73); details: 10 μM BA, after 6 hours, 25° C.
Method: (§3) Two experiments were performed: one was an initial experiment to determine the time course for BA induction of Ckx1 transcripts in leaf discs, while the second experiment used the time-course information to optimize tissue harvest for the actual Lynx study. For the time-course experiment, leaf discs (5 mm in diameter) were collected from fully expanded leaves of 8-week old maize plants (inbred B73) and were incubated in petri dishes containing water or water plus 10 μM BA for different time periods at 25° C. For the Lynx experiment ˜300 leaf-discs were punched from ear leaves collected from 5 different maize B73 plants at flowering. Half of the discs were floated in a large petri dish on a solution containing 10 μM BA; the other half were floated on distilled water. Discs were incubated for 6 h at 25° C. in the light, blotted-dried, frozen in liquid nitrogen, and then submitted for Lynx analysis.
Time-course experiment: This perfunctory experiment was designed to learn the kinetics of Ckx1 transcript accumulation in response to BA. Ckx1 transcript levels were induced […] after 6 hours (FIG. 1).

[3] = tested on: Zm Response regulator 5 (ZmRR5); experiment: Lynx expression experiment, leaf discs floated on BA vs water: ZmRR5; format: cell-based, maize B73; details: 6 h
Method: as §1, §3, §2
(§4) A ˜30-fold increase in Ckx1 transcripts was measured after 6 h of BA application (Table 2). […] We also identified two new response regulators whose expression is induced by BA, ZmRRS and ZmRR6 (Table 2).

[4] = tested on: Ckx1; details: maize leaf discs incubated with BA, compared to untreated controls; cited from earlier work
[5] = tested on: Zm response regulator 6 (ZmRR6); experiment: Lynx expression experiment, leaf discs floated on BA vs water: ZmRR6; format: cell-based, maize B73; details: 6 h
Method: as §1, §3, §2, §4

Structure (SMILES): c1ccc(CNc2ncnc3nc[nH]c23)cc1 [BA, benzyladenine]
- increase in Ckx1 transcripts [1]: ~30 fold
- Ckx1 transcript levels induced [2]: ~15 fold
- Up/down regulation ([3]; 10 μM BA vs water): up
- Ratio BA/Ctrl ([3]; 10 μM BA vs water, ppm ratio): 8.50
- Cldba (treated sample) expression ([3]; 10 μM BA, Lynx): 395 ppm
- Ckx1 induced [4]: ~60 fold
- Up/down regulation ([5]; 10 μM BA vs water): up
- Ratio BA/Ctrl ([5]; 10 μM BA vs water, ppm ratio): 8.75
- Cldba (treated sample) expression ([5]; 10 μM BA, Lynx): 70 ppm
